Measurements published in publication PMC6277767, “Broad and Region-Specific Impacts of the Synthetic Cannabinoid CP 55,940 in Adolescent and Adult Female Mouse Brains” (Frontiers in Molecular Neuroscience, 2018).

System: CD1 female mouse brain lipidome
Experiment: Brain-region lipid levels (HPLC/MS/MS lipidomics) 2 h after single i.p. 3 mg/kg CP 55,940 vs vehicle
Assay type: in vivo
Design: N-arachidonoyl phenylalanine level, Mean / N-stearoyl tryptophan level, Mean / N-stearoyl proline level, Mean / N-stearoyl leucine level, Mean / N-stearoyl phenylalanine level, Mean / N-stearoyl serine level, Mean / N-stearoyl methionine level, Mean: unit: moles per gram
Details: midbrain
Experimental: The Bloomington Institutional Animal Care and Use Committee of Indiana University reviewed and approved the animal procedures. Female mice from the CD1 strain were utilized to match our study examining THC’s effects on the brain lipidome ([Leishman et al., 2018]). Mice were given a single i.p. injection of either 3 mg/kg CP or 1:1:18 cremophor:ethanol:saline vehicle (please refer to the section “3 mg/kg CP Is Relevant for Synthetic Cannabinoid Abuse and Has Stronger Effects on the Female Mouse Brain Lipidome During Adolescence” for a justification of dose and use of female mice). Three different age groups were given injections: PND 35 and PND 50 adolescents, and adult mice (PND 113). At least eight mice in each age group received CP and at least eight received vehicle. Matching the THC study time course ([Leishman et al., 2018]), mice were sacrificed via rapid decapitation 2 h after injection. Brains were immediately removed and flash-frozen in liquid nitrogen, and then stored at -80°C until dissections were performed. Brains were dissected on an ice-cold dissection plate into the following regions: STR, HIPP, CER, THAL, CTX, HYP, MID, and STEM. These abbreviations for these brain areas will be used exclusively when discussing the results generated by these specific dissections. Each dissected area was immediately placed in liquid nitrogen and then stored at -80°C until used for lipid extraction.
Tissue extracts were performed as previously described ([Bradshaw et al., 2006]; [Stuart et al., 2013]; [Raboune et al., 2014]; [Leishman et al., 2016a],[b], [2017], [2018]). First, samples were shock frozen in liquid nitrogen, weighed, and transferred to a centrifuge tube. The mass of the largest sample was multiplied by 50 to determine how many milliliters of HPLC-grade methanol (Fisher, Fair Lawn, NJ, United States) to add. Then, samples were spiked with 500 pmol deuterium-labeled NAGly (d8NAGly; Cayman Chemical, Ann Arbor, MI, United States). Samples were placed on ice in darkness for 2 h then individually homogenized and centrifuged at 19,000 × g for 20 min at 20°C. Supernatants were diluted with HPLC water (purified in house) to make a solution of 75% water, 25% supernatant. Lipids were partially purified on C18 solid phase extraction columns (Agilent, Palo Alto, CA, United States). A series of four elutions with 1.5 mL of 60%, 75%, 85%, and 100% methanol were collected ([Stuart et al., 2013]; [Leishman et al., 2016a],[b], [2018]).
As previously described ([Bradshaw et al., 2006]; [Tan et al., 2006]; [Smoum et al., 2010]; [Stuart et al., 2013]; [Tortoriello et al., 2013]; [Raboune et al., 2014]; [Leishman et al., 2016a],[b], [2017], [2018]), samples were analyzed using an Applied Biosystems API 3000 triple quadrupole mass spectrometer with electrospray ionization (Foster City, CA, United States). Using an Agilent XDB-C18 reversed phase analytical column and optimized mobile phase gradients, 20 μL from each elution were chromatographed. Two Shimadzu 10ADvp pumps (Columbia, MD, United States) provided the pressure for gradient elution. Mobile phase A: 20% methanol, 80% water (v/v) and 1 mM ammonium acetate (Sigma, St. Louis, MO, United States). Mobile phase B: 100% methanol, 1 mM ammonium acetate. Every method run began with 0% mobile phase B, reached 100% mobile phase B flowing at 0.2 mL/min, and gradually returned to 0% mobile phase B.
This screening library will be referred to as the lipidome when discussing data from this study. HPLC/MS/MS data were analyzed using Analyst software (Applied Biosystems) ([Bradshaw et al., 2006]; [Tan et al., 2006]; [Stuart et al., 2013]; [Tortoriello et al., 2013]; [Raboune et al., 2014]; [Leishman et al., 2016a],[b], [2017], [2018]). Chromatograms (Supplementary Figure 3) were generated by determining the retention time of analytes from the analytical column with a [M-1] or [M+1] parent peak and a fragmentation peak corresponding to the programmed values. […]

[1] = PND 50 female mice, 3mg/kg CP 55,940
[2] = PND 35 WT adolescent female mice, 3 mg/kg

SMILES: CCCCCCC(C)(C)c1ccc([C@@H]2C[C@H](O)CC[C@H]2CCCO)c(O)c1 [CP 55,940]
- N-linoleoyl serine level, Mean [1]: 6.73E-11
- N-linoleoyl tryptophan level, Mean [1]: BDL
- N-linoleoyl tyrosine level, Mean [1]: BDL
- N-linoleoyl valine level, Mean [1]: BDL
- N-nervonoyl valine level, Mean [1]: BDL
- N-oleoyl GABA level, Mean [1]: 5.62E-12
- N-oleoyl alanine level, Mean [1]: 6.9E-13
- N-oleoyl dopamine level, Mean [1]: BDL
- N-oleoyl ethanolamine level, Mean [1]: 1.01E-10
- N-oleoyl glycine level, Mean [1]: 3.06E-12
- N-oleoyl leucine level, Mean [1]: 5.64E-13
- N-oleoyl methionine level, Mean [1]: 3.18E-13
- N-oleoyl phenylalanine level, Mean [1]: 1.15E-12
- N-oleoyl proline level, Mean [1]: BDL
- N-oleoyl serine level, Mean [1]: 1.24E-10
- N-oleoyl tryptophan level, Mean [1]: BDL
- N-oleoyl tyrosine level, Mean [1]: 3.77E-13
- N-oleoyl valine level, Mean [1]: 6.01E-14
- N-palmitoyl GABA level, Mean [1]: 1.3E-11
- N-palmitoyl alanine level, Mean [1]: 1.18E-12
- N-palmitoyl ethanolamine level, Mean [1]: 7.69E-11
- N-palmitoyl glycine level, Mean [1]: 1.39E-11
- N-palmitoyl leucine level, Mean [1]: 1.38E-12
- N-palmitoyl methionine level, Mean [1]: 1.13E-12
- N-palmitoyl phenylalanine level, Mean [1]: 1.94E-12
- N-palmitoyl proline level, Mean [1]: BDL
- N-palmitoyl serine level, Mean [1]: 1.74E-11
- N-palmitoyl tryptophan level, Mean [1]: BDL
- N-palmitoyl tyrosine level, Mean [1]: 8.39E-13
- N-palmitoyl valine level, Mean [1]: 3.48E-13
- N-stearoyl GABA level, Mean [1]: 1.21E-11
- N-stearoyl alanine level, Mean [1]: 3.21E-13
- N-stearoyl ethanolamine level, Mean [1]: 3.26E-11
- N-stearoyl glycine level, Mean [1]: 1.13E-12
- N-stearoyl leucine level, Mean [1]: 7.66E-13
- N-stearoyl methionine level, Mean [1]: 1.11E-12
- N-stearoyl phenylalanine level, Mean [1]: 1.62E-12
- N-stearoyl proline level, Mean [1]: BDL
- N-stearoyl serine level, Mean [1]: 3.85E-11
- N-stearoyl tryptophan level, Mean [1]: BDL
- N-stearoyl tyrosine level, Mean [1]: 1.16E-13
- Oleic acid level, Mean [1]: 3.11E-10
- PGE2 level, Mean [1]: 1.09E-10
- PhosphoLEA level, Mean [1]: PISSR
- THC level, Mean [1]: BDL
- 2-arachidonoyl glycerol level, Mean [2]: 3.74E-10
- 2-linoleoyl glycerol level, Mean [2]: 1.59E-10
- 2-oleoyl glycerol level, Mean [2]: 1.88E-09
- 2-palmitoyl glycerol level, Mean [2]: 4.69E-10
- 6-ketoPGF1α level, Mean [2]: 2.09E-11
- Arachidonic acid level, Mean [2]: 1.63E-09
- Linoleic acid level, Mean [2]: 5.14E-10
- N- stearoyl valine level, Mean [2]: 1.32E-12
- N-arachidonoyl GABA level, Mean [2]: 1.53E-11
- N-arachidonoyl alanine level, Mean [2]: 8.2E-12
- N-arachidonoyl ethanolamine level, Mean [2]: 2.18E-11
- N-arachidonoyl glycine level, Mean [2]: 4.42E-11
- N-arachidonoyl methionine level, Mean [2]: 1.48E-12
- N-arachidonoyl phenylalanine level, Mean [2]: 1.53E-12
- N-arachidonoyl serine level, Mean [2]: 6.81E-12
- N-arachidonoyl taurine level, Mean [2]: 3.84E-11
- N-arachidonoyl tyrosine level, Mean [2]: 1.5E-12
- N-docosahexaenoyl GABA level, Mean [2]: 2.08E-12
- N-docosahexaenoyl alanine level, Mean [2]: 3.78E-12
- N-docosahexaenoyl ethanolamine level, Mean [2]: 3.99E-11
- N-docosahexaenoyl glycine level, Mean [2]: 1.87E-11
- N-docosahexaenoyl leucine level, Mean [2]: 7.41E-13
- N-docosahexaenoyl methionine level, Mean [2]: 4.7E-13
- N-docosahexaenoyl phenylalanine level, Mean [2]: 1.08E-12
- N-docosahexaenoyl serine level, Mean [2]: 2.39E-11
- N-docosahexaenoyl tyrosine level, Mean [2]: 1.6E-12
- N-docosahexaenoyl valine level, Mean [2]: 3.26E-13
- N-linoleoyl GABA level, Mean [2]: 7.43E-13
- N-linoleoyl alanine level, Mean [2]: 1.52E-12
- N-linoleoyl ethanolamine level, Mean [2]: 3.78E-11
- N-linoleoyl glycine level, Mean [2]: 4.58E-12
- N-linoleoyl leucine level, Mean [2]: 3.56E-13
- N-linoleoyl phenylalanine level, Mean [2]: 2.21E-13
- N-linoleoyl serine level, Mean [2]: 5.04E-11
- N-oleoyl GABA level, Mean [2]: 4E-12
- N-oleoyl alanine level, Mean [2]: 7.02E-12
- N-oleoyl ethanolamine level, Mean [2]: 1.94E-10
- N-oleoyl glycine level, Mean [2]: 2.31E-11
- N-oleoyl leucine level, Mean [2]: 1.53E-12
- N-oleoyl methionine level, Mean [2]: 1.46E-12
- N-oleoyl phenylalanine level, Mean [2]: 1.6E-12
- N-oleoyl serine level, Mean [2]: 2.91E-10
- N-oleoyl tryptophan level, Mean [2]: 1.39E-13
- N-oleoyl tyrosine level, Mean [2]: 1.05E-12
- N-oleoyl valine level, Mean [2]: 1.38E-12
- N-palmitoyl GABA level, Mean [2]: 1.05E-11
- N-palmitoyl alanine level, Mean [2]: 1.05E-11
- N-palmitoyl ethanolamine level, Mean [2]: 9.08E-11
- N-palmitoyl glycine level, Mean [2]: 4.59E-11
- N-palmitoyl leucine level, Mean [2]: 3.23E-12
- N-palmitoyl methionine level, Mean [2]: 2.56E-12
- N-palmitoyl phenylalanine level, Mean [2]: 3.04E-12
- N-palmitoyl proline level, Mean [2]: 9.03E-13
- N-palmitoyl serine level, Mean [2]: 9.45E-11
- N-palmitoyl tryptophan level, Mean [2]: 4.42E-13
- N-palmitoyl tyrosine level, Mean [2]: 2.19E-12
- N-palmitoyl valine level, Mean [2]: 2.86E-12
